Residues, ends and D or L forms follow the SMILES beside them. No end group written: not given here.
What was measured:
Assay type in all cases: cell-based
[1] = system: Escherichia coli [KCTC 1682]; conditions: KCTC 1682, 24 h
Description: (§1) The MICs of the peptides were measured by the Clinical and Laboratory Standards Institute (CLSI) broth microdilution method, as outlined in a previous study.^[ [26], [27] ^]
(§2) Minimal Inhibitory Concentrations (MICs): Bacteria were grown to mid-logarithmic phase and diluted in Mueller-Hinton broth (MHB) (Difco). The bacterial suspension (1×10^6 CFU/well) was added to a 96-well microtiter plate along with a two-fold serial dilution of samples. The plate was incubated at 37 °C for 24 hours and the bacterial growth inhibition was assessed by measuring the optical density using an ELISA plate reader. The minimum inhibitory concentration (MIC) was defined as the lowest concentration of samples that prevented visible bacterial growth.

[2] = system: Pseudomonas aeruginosa [KCTC 1637]; conditions: KCTC 1637, 24 h
Description: as §1, §2

[3] = system: Staphylococcus aureus [KCTC1621]; conditions: KCTC1621, 24 h
Description: as §1, §2

[4] = system: Staphylococcus epidermidis [KCTC 1917]; conditions: KCTC 1917, 24 h
Description: as §1, §2

CC[C@H](C)[C@H](NC(=O)[C@@H]1CCCN1C(=O)[C@H](Cc1ccccc1)NC(=O)[C@H](CCC(N)=O)NC(=O)[C@H](CO)NC(=O)[C@H](CCCNC(=N)N)NC(=O)[C@@H](N)Cc1ccccc1)C(=O)N[C@@H](CS)C(=O)N[C@@H](CCCCN)C(=O)N[C@@H](CC(N)=O)C(=O)N[C@@H](CC(C)C)C(=O)N[C@H](C(=O)N[C@@H](CC(N)=O)C(=O)N[C@@H](Cc1c[nH]cn1)C(=O)N[C@H](C(=O)N[C@@H](CCCCN)C(=O)N[C@@H](Cc1ccccc1)C(=O)N[C@H](C(=O)N[C@@H](CS)C(=O)N[C@@H](CCC(N)=O)C(=O)N[C@@H](CCCCN)C(=O)N[C@@H](CCCCN)C(=O)N1CCC[C@H]1C(=O)N[C@@H](CC(C)C)C(=O)N[C@@H](CO)C(=O)N[C@@H](CCCCN)C(=O)N[C@@H](CC(C)C)C(=O)N[C@@H](CCSC)C(=O)N[C@@H](CCCCN)C(=O)N[C@@H](CS)C(=O)N[C@@H](CCCCN)C(=O)N[C@@H](CCCCN)C(=O)N[C@@H](C)C(=O)N[C@@H](CC(C)C)C(=O)N[C@@H](CC(=O)O)C(=O)N[C@@H](CCCNC(=N)N)C(=O)O)C(C)C)[C@@H](C)O)C(C)C [LP16] (H-FRSQFPICKNLVNHTKFVCQKKPLSKLMKCKKALDR-OH)
>128 µg/mL: Minimum inhibitory concentration (MIC), Escherichia coli [KCTC 1682] [1] | Minimum inhibitory concentration (MIC), Pseudomonas aeruginosa [KCTC 1637] [2] | Minimum inhibitory concentration (MIC), Staphylococcus aureus [KCTC1621] [3] | Minimum inhibitory concentration (MIC), Staphylococcus epidermidis [KCTC 1917] [4]

NITDYNKKKVRLLPRFIFPLG-NH2 [LP13]
>128 µg/mL: Minimum inhibitory concentration (MIC), Escherichia coli [KCTC 1682] [1] | Minimum inhibitory concentration (MIC), Pseudomonas aeruginosa [KCTC 1637] [2] | Minimum inhibitory concentration (MIC), Staphylococcus aureus [KCTC1621] [3] | Minimum inhibitory concentration (MIC), Staphylococcus epidermidis [KCTC 1917] [4]

CC(C)C[C@H](NC(=O)[C@H](Cc1ccc(O)cc1)NC(=O)[C@H](CCCCN)NC(=O)[C@H](CCCNC(=N)N)NC(=O)[C@H](CCCNC(=N)N)NC(=O)[C@H](CCC(N)=O)NC(=O)[C@@H](NC(=O)[C@H](CC(N)=O)NC(=O)[C@H](CCCNC(=N)N)NC(=O)CNC(=O)[C@@H](NC(=O)[C@H](CS)NC(=O)[C@@H]1CCCN1C(=O)[C@H](CCCCN)NC(=O)[C@H](CO)NC(=O)[C@H](CC(N)=O)NC(=O)[C@H](CC(C)C)NC(=O)[C@H](CCCCN)NC(=O)[C@H](CS)NC(=O)[C@H](CCC(N)=O)NC(=O)[C@H](CCCNC(=N)N)NC(=O)[C@H](CCC(=O)O)NC(=O)[C@H](CCCNC(=N)N)NC(=O)[C@@H](NC(=O)[C@H](Cc1c[nH]c2ccccc12)NC(=O)[C@H](Cc1ccc(O)cc1)NC(=O)CNC(=O)[C@@H](NC(=O)[C@@H](NC(=O)[C@H](CC(=O)O)NC(=O)[C@@H](N)CCCCN)C(C)C)[C@@H](C)O)C(C)C)C(C)C)[C@@H](C)O)C(=O)N[C@@H](CC(N)=O)C(=O)N[C@@H](CCCCN)C(N)=O [LP4] (H-KDVTGYWVRERQCKLNSKPCVGRNTQRRKYLNK-NH2; N-terminus and C-terminus assumed)
>128 µg/mL: Minimum inhibitory concentration (MIC), Escherichia coli [KCTC 1682] [1] | Minimum inhibitory concentration (MIC), Pseudomonas aeruginosa [KCTC 1637] [2] | Minimum inhibitory concentration (MIC), Staphylococcus aureus [KCTC1621] [3] | Minimum inhibitory concentration (MIC), Staphylococcus epidermidis [KCTC 1917] [4]

LSKGGFKGKPERAMAHHLKNIRKKLSKSIMKS [LP6]
>128 µg/mL: Minimum inhibitory concentration (MIC), Escherichia coli [KCTC 1682] [1] | Minimum inhibitory concentration (MIC), Pseudomonas aeruginosa [KCTC 1637] [2] | Minimum inhibitory concentration (MIC), Staphylococcus aureus [KCTC1621] [3] | Minimum inhibitory concentration (MIC), Staphylococcus epidermidis [KCTC 1917] [4]

KLTPKPAKKVKKVVKF [LP1]
>128 µg/mL: Minimum inhibitory concentration (MIC), Escherichia coli [KCTC 1682] [1] | Minimum inhibitory concentration (MIC), Pseudomonas aeruginosa [KCTC 1637] [2] | Minimum inhibitory concentration (MIC), Staphylococcus aureus [KCTC1621] [3] | Minimum inhibitory concentration (MIC), Staphylococcus epidermidis [KCTC 1917] [4]
